Active and inactive are the calls of the source.
Experiments:
[1] = NIH3T3 cell viability loss – ATP luminescence, mouse fibroblasts, counter-screen, dose response (AID 2010); format: functional, cell-based;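 further: cells exposed to compound for about 90 hours before reading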
[2] = molecular target: T1, DNA repair protein RAD52 homolog (Homo sapiens, UniProt P43351); format: functional, biochemical
T1 sequence (P43351 whole entry): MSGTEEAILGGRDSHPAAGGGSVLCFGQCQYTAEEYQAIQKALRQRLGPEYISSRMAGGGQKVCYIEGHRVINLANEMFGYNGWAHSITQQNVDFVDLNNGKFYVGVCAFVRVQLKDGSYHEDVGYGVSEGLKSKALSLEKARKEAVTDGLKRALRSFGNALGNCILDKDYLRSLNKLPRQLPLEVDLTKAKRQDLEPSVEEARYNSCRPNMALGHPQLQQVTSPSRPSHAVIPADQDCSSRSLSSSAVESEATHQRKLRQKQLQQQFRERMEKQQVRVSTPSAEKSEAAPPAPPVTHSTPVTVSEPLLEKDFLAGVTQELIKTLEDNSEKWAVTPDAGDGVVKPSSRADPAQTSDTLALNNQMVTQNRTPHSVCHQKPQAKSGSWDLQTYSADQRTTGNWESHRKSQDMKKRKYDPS

[3] = Trypanosoma cruzi growth suppression in host cells – NIH3T3 host cells, beta-gal luminescence, confirmation (AID 2044); format: functional, cell-based;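 further: intracellular parasites grown in NIH/3T3 mouse fibroblasts as host cells; luminescent beta-galactosidase reporter signal from transgenic T. cruzi replicating inside host cells; inhibitors lower the luminescence signal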
[4] = molecular target: T2, Short transient receptor potential channel 4 (Mus musculus, UniProt Q9QUQ5); assay: calcium entry via TRPC4 opening agents – cell-based, HEK293 TRPC4/mu-opioid, Fluo-4 calcium, dose response (AID 434937); format: functional
T2 sequence (Q9QUQ5 whole entry): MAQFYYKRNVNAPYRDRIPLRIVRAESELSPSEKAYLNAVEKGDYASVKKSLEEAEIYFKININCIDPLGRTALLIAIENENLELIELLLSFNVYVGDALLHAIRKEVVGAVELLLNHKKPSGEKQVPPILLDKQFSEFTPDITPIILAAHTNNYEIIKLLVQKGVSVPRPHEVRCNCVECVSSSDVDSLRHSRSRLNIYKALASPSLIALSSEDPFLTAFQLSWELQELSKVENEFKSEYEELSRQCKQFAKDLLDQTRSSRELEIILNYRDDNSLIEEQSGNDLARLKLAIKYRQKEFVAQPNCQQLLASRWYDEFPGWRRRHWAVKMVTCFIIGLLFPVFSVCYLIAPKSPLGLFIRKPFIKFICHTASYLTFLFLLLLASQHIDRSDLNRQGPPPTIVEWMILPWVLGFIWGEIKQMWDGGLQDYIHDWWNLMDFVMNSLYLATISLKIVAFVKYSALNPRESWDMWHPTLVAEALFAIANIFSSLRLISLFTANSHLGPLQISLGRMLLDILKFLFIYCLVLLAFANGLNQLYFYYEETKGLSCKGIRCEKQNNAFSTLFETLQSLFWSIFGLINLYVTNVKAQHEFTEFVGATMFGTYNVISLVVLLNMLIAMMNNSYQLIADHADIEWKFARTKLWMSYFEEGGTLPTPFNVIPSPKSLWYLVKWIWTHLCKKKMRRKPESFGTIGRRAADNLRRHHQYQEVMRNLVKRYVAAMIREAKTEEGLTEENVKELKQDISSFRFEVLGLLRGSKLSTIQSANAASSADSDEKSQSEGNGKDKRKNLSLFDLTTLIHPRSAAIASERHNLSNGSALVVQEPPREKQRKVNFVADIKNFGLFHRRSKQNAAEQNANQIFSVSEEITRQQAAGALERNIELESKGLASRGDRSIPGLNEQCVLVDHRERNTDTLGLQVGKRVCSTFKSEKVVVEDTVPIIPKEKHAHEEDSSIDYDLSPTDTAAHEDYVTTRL

Protein skinhead-1 = molecular target: T3, Protein skinhead-1 (Caenorhabditis elegans, UniProt P34707); format: functional
T3 sequence (P34707 whole entry): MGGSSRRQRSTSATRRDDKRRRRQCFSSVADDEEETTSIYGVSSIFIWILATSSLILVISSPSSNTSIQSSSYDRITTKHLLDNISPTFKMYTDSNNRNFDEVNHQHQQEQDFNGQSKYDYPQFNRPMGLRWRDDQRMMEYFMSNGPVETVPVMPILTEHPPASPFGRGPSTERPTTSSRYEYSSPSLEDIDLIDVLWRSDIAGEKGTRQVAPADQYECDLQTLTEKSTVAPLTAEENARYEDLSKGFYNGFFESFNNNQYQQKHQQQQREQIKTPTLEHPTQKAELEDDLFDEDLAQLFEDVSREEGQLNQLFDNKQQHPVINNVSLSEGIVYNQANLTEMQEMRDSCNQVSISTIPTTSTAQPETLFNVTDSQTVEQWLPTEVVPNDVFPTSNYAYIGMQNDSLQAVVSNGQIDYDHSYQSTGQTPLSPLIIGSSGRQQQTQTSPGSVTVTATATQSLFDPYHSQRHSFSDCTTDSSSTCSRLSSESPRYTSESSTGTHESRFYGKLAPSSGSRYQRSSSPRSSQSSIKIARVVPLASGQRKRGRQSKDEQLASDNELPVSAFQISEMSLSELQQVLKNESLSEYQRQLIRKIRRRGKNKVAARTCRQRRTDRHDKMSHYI

[5] = molecular target: Glyceraldehyde-3-phosphate dehydrogenase (Homo sapiens, UniProt P04406)
[6] = blockers of bursicon-stimulated LGR2 cAMP reporter – cell-based, HEK293, CRE-luciferase reporter, cherry pick, set 2, dose response (AID 743343); format: functional;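 further: transfected cells were stimulated with diluted bursicon conditioned medium after compound addition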
[7] = luciferase reporter signal suppression in cells – H4 neuroglioma cells, luminescence, dose response (AID 1990); format: functional, cell-based
[8] = blockade of melanocortin 4 receptor signaling – cell-based, plate reader, cherry pick, counter-screen for LGR2 antagonist project, dose response (AID 743444); format: functional;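 further: transfected HEK 293 cells stimulated with alpha-MSH peptide; potency of inhibitors of the alpha-MSH evoked signal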
[9] = molecular target: T4, Heat shock factor protein 1 (Mus musculus, UniProt P38532); assay: decrease of HSF1-responsive luciferase luminescence – cell-based, NIH3T3, dose retest, confirmation (AID 2382); format: functional;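 further: NIH3T3 fibroblasts with HSF1-driven luciferase reporter stressed by proteasome inhibitor MG132; luminescence from HSF1-driven luciferase expression after 8 hours of MG132 stress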
T4 sequence (P38532 whole entry): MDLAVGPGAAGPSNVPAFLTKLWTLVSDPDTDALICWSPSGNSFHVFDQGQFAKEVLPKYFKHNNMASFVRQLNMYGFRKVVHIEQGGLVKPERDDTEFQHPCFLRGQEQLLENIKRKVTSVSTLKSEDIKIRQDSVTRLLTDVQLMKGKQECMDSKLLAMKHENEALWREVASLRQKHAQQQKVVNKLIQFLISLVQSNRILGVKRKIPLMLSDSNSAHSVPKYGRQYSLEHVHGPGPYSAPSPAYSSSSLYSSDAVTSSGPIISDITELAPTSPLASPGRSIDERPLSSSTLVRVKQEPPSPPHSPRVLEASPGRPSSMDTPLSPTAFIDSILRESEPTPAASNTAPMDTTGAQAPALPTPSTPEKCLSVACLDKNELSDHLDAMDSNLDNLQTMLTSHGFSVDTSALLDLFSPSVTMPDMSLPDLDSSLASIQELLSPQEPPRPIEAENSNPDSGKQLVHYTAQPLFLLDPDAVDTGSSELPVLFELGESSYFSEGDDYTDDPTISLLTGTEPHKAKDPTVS

[10] = Luminescence Cell-Based Dose Response HTS to Identify Inhibitors of 5'UTR Stem-Loop Driven Prion Protein mRNA Translation in H4 Neuroglioblastoma Cells. [Related pubchem assays: 1827 (Project Summary), 1813 (Primary HTS)]; format: functional
[11] = alpha-synuclein stem-loop luciferase translation blockers – H4 neuroglioma cells, luminescence, confirmation (AID 1988); format: functional, cell-based
[12] = A549 cell cytotoxicity, dose response, cytotoxicity control, plate reader, cherry-pick, antagonist series (AID 743412); format: functional, cell-based
[13] = HIV-1 AD8 envelope cell-cell fusion blockers – cherry-pick, dose response (AID 652062); format: functional, cell-based;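 further: luciferase signal from cell-cell fusion driven by HIV-1 clade B AD8 Env; potency is for inhibitors of fusion seen as a drop in luminescence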
[14] = intracellular Trypanosoma cruzi inhibitors in host cells – cell-based, plate reader, cherry-pick samples, set 3, dose response (AID 651818); format: functional;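 further: compounds incubated with infected cells for about four days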

Chain of Glyceraldehyde-3-phosphate dehydrogenase (P04406 whole entry): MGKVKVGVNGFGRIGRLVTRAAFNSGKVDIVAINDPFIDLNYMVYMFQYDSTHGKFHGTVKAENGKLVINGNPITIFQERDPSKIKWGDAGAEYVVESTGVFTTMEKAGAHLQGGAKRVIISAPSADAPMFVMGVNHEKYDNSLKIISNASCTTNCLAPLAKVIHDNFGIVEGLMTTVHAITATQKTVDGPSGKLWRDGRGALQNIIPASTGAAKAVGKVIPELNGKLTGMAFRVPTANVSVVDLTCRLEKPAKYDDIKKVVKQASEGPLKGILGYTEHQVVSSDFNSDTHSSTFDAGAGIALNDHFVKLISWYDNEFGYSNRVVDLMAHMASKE

Q: What does the source list for Cc1cc(C)c2nc(N(CCCN(C)C)C(=O)c3ccc4c(c3)CCCC4)sc2c1?
A: EC50 [1]: 4.48 µM (active); AC50 [2]: 13.4 µM (active); EC50 [3]: 0.727 µM (active)

Q: For COc1ccccc1N1CCN(C(c2cccs2)C(C)NC(=O)c2cccs2)CC1 (stereo unspecified), which EC50 [4] is on record?
A: 0.335 µM (active)

Q: For Cc1cc(C(=O)CSc2nnc(C3COc4ccccc4O3)n2C)c(C)n1-c1ccc(F)cc1 (stereo unspecified), which IC50 (Protein skinhead-1) is on record?
A: > 100 µM (inactive)

Q: With Fc1ccc(-c2csc(N3CCSCC3)n2)cc1 as the compound, how does the IC50 (Protein skinhead-1) read?
A: > 100 µM (inactive)

Q: With Cc1cc(C)c(NS(=O)(=O)c2ccc(O)c(C(=O)O)c2)c(C)c1 as the compound, how does the IC50 [5] read?
A: > 100 µM (not active)

Q: For COc1cc(/C=C2\SC(=O)N(CCN)C2=O)ccc1OS(=O)(=O)c1cc(C)ccc1C, which AC50 [2] is on record?
A: 5.08 µM (active)

Q: Which IC50 [5] does the source give for CCOc1ccc(S(=O)(=O)Nc2ccc(O)c(C(=O)O)c2)cc1 here?
A: > 100 µM (not active)

Q: With CN1CCN(c2ccc(NC(=O)N3CCc4ccccc43)cc2)CC1 as the compound, how does the AC50 [6] read?
A: 2.2 µM (active)

Q: And the EC50 [7]?
A: 6.81 µM (inconclusive)

Q: And the AC50 [8]?
A: 4.38 µM (active)

Q: What about the EC50 [9] of the same compound?
A: < 0.16 µM (active)

Q: And the EC50 [10]?
A: 9.49 µM (active)

Q: What about the EC50 [11] of the same compound?
A: > 120 µM (not active)

Q: And the AC50 [12]?
A: > 52 µM (inactive)

Q: Which IC50 (Protein skinhead-1) does the source give for COc1ccc(CN(C(=O)c2oc3ccccc3c2C)C2CCS(=O)(=O)C2)cc1 (stereo unspecified) here?
A: > 100 µM (inactive)

Q: For Clc1ccc(Cc2noc(-c3cccs3)n2)cc1, which IC50 (Protein skinhead-1) is on record?
A: 4.34 µM (active)

Q: For CCC1CCCCN1S(=O)(=O)c1ccc(C(=O)N(CCCN(C)C)c2nc3cc4c(cc3s2)OCO4)cc1 (stereo unspecified), which EC50 [4] is on record?
A: 6.68 µM (active)

Q: For CN(C)CCCNC(=O)C(=O)Nc1cc2c3c(c1)CC(=O)N3CCC2, which AC50 [2] is on record?
A: 15.4 µM (active)

Q: With COc1ccc(S(=O)(=O)N2CC(C(=O)O)Oc3ccccc32)cc1 (stereo unspecified) as the compound, how does the IC50 (Protein skinhead-1) read?
A: > 100 µM (inactive)

Q: With O=C(COC(=O)c1ncc(Cl)c(Cl)c1Cl)NCc1cccs1 as the compound, how does the AC50 [13] read?
A: 1.12 µM (active)

Q: With COc1ccc(NC(=O)Nc2ccc3c(c2)C(=O)N([C@@H](C)CO)C[C@H](C)[C@@H](CN(C)Cc2ccc(-c4ccccc4)cc2)O3)cc1 as the compound, how does the AC50 [14] read?
A: 5.13 µM (active)

Q: With COc1ccc(CN(C)C[C@H]2Oc3c(NC(=O)Nc4ccc(C(F)(F)F)cc4)cccc3C(=O)N([C@H](C)CO)C[C@@H]2C)cc1 as the compound, how does the AC50 [14] read?
A: 3.26 µM (active)

Q: With C[C@@H]1CN([C@@H](C)CO)C(=O)c2cccc(NC(=O)c3ccc(-c4nccs4)cc3)c2O[C@@H]1CN(C)Cc1ccc(C(=O)Nc2ccccc2N)cc1 as the compound, how does the AC50 [14] read?
A: 1.61 µM (active)

Q: With C[C@@H]1CN([C@H](C)CO)C(=O)c2cccc(NS(=O)(=O)c3ccc(Cl)cc3)c2O[C@H]1CN(C)Cc1ccc(C(=O)Nc2ccccc2N)cc1 as the compound, how does the AC50 [14] read?
A: 1.77 µM (active)

Q: With C[C@@H]1CCCCO[C@H](CN(C)Cc2ccc3c(c2)OCO3)[C@@H](C)CN([C@H](C)CO)C(=O)c2cc(NC(=O)Nc3ccc(C(F)(F)F)cc3)ccc2O1 as the compound, how does the AC50 [14] read?
A: 2.16 µM (active)

Q: For C[C@H](CO)N1C[C@H](C)[C@@H](CN(C)S(=O)(=O)c2ccc(Cl)cc2)Oc2c(cccc2N(C)C)C1=O, which AC50 [14] is on record?
A: 10.1 µM (active)

Q: With C[C@H]1CN([C@@H](C)CO)C(=O)Cc2cc(NS(=O)(=O)c3ccccc3)ccc2O[C@@H]1CN(C)Cc1ccc(-c2ccccc2)cc1 as the compound, how does the AC50 [14] read?
A: 5.32 µM (active)

Q: For O=C(N/N=C/c1ccco1)C1COc2ccccc2O1 (stereo unspecified), which EC50 [4] is on record?
A: 4.22 µM (active)

Q: For N=C(Nc1ccccc1)Nc1ccccc1, which EC50 [4] is on record?
A: 10.6 µM (active)
